Laboratory results from patent US20120006538A1, “METHOD FOR PRE-TREATMENT OF SUBTERRANEAN SITES ADJACENT TO WATER INJECTION WELLS” (E. I. DU PONT DE NEMOURS AND COMPANY, priority 2010, published 2012).

How the values were obtained:
[1] = Amine concentration in brine #2 over amine-coated core sand, titration with 10% acetic acid (Example 5); conditions: titration with 10 wt % acetic acid, core sand in brine #2
[2] = Amine concentration in brine #2 over amine-coated core sand, titration with 10% nitric acid (Example 4); conditions: titration with 10 wt % nitric acid, core sand in brine #2
Method: Concentration of amines, in media and water, were analyzed by gas chromatography (GC). An Agilent Model 5890 (Agilent, Wilmington, Del.), GC equipped with a […] and a split/splitless injector, a DB-FFAP column (30 meter length×0.32 millimeter (mm) depth×0.25 micrometer particle size). […] The system was calibrated using a sample of N,N-Dimethyl-1-Dodecaneamine (Aldrich). Helium was used as the carrier gas. A temperature gradient of 50 degrees Celsius (° C.) to 250° C. at 30° C. increase per minute (min) was used. Retention times (in minutes, min) for various chemicals of interest included: N,N-Dimethyl-1-Dodecaneamine (8.08 min); N,N-Dimethyl-1-Tetradecaneamine (8.85 min); N,N-Dimethyl-1-Hexadecane-amine (9.90 min); N,N-Dimethyl-1-Octadecaneamine (10.26 min) and N-Methyl,N-Benzyl)-1-Tetradecaneamine (11.40 min).
The procedure outlined in Example 2 was used to produce the sand/amine mixture except that 519 mg of the amine, 10 gr of Pentane. and 60.062 gr of sand from the Oa and Ob layers were used. 29.065 gr of this sand/amine mixture was added to 100 ml of brine #2 (Table 3) to create the sand/amine/brine mixture. […] 0.1 ml of 10 weight percent (wt %) nitric acid in water was added to this solution, and the pH and the amine concentration were measured again.

[3] = Amine concentration in brine #2 over amine-coated core sand, titration with 1N HCl (Example 2); format: physicochemical; conditions: core sand in brine #2
Method: Helium was used as the carrier gas.
38 milligrams (mg) of N N-Dimethyl-1-Dodecanamine (hereafter referred to as “the amine”) was added to 10.210 gr of Pentane. This solution was added to 10.1845 gr of specific sand layers (Oa and Ob) obtained from the Schrader Bluff formation of the Milne Point Unit of the Alaskan North slope. The oil content of the sand was first removed using a mixture of methanol and toluene (50/50, volume/volume) as solvent washes. The solvent mixture was subsequently evaporated off the core sand to produce clean, dry, flowable core sand. This sand was mixed with the amine and pentane solution to produce a slurry. This slurry was thoroughly mixed and the pentane was evaporated off leaving the amine on the sand (hereafter referred to as sand/amine mixture). 100 ml of brine #2 (Table 3) was added to the sand/amine mixture to create the sand/amine/brine mixture. […] The fact that the amine was not detected underlined its strong binding to the sand particles. […] The data underlines the remarkable efficiency of an acid at ionizing and removing the amine from the sand.

In the case of `CCCCCCCCCCCCN(C)C` [N N-Dimethyl-1-Dodecanamine], the “pH of complete ionization and solubilization in the water of the amine” value [1] is reported as under 6.7, the “pH of complete ionization and solubilization in the water of the amine” value [2] is reported as under 6.7 and the “pH of complete ionization and solubilization of the amine in the water” value [3] is reported as under 6.0.
